Reference: patent US20220204539A1, “CD73 INHIBITORS” (BioArdis LLC, priority 2019, published 2022)
pIC50: −log10 of the molar value.

What was measured:
[1] = biological target: T1, Recombinant Human 5′-Nucleotidase (CD73) (Homo sapiens, UniProt P21589); assay: CD73 Enzyme Assay; assay type: biochemical; conditions: human CD73 0.5 nM, AMP 30 μM, PiColorLock phosphate detection; read-out: Potency (IC50, CD73 enzyme assay)
T1 construct: CHO derived CD73 (Trp27-Lys547), with a C-terminal 6-His tag; 6-His (C); purchased R&D 5795-EN; host or cells: CHO
T1 sequence (P21589 27-547): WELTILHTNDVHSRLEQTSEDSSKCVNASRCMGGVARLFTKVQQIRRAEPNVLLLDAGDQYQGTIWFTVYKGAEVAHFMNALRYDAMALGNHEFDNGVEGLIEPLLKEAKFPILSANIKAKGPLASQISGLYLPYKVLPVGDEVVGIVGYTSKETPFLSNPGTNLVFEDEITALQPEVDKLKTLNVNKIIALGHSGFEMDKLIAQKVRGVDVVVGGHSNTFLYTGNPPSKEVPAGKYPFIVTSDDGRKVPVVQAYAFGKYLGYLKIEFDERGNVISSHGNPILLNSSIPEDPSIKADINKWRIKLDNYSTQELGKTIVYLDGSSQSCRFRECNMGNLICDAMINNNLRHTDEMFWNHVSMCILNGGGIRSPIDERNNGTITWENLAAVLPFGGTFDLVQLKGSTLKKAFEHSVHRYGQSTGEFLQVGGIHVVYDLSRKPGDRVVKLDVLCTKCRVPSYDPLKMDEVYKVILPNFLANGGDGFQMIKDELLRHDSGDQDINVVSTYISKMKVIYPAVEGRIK
From the text: Soluble recombinant CD73 catalyzes the conversion of adenosine monophosphate (AMP) to adenosine and inorganic phosphate. The phosphate detection reagent, PiColorLock™ (Innova Bioscience, Cat #303-0125) is based on the change in absorbance of the dye malachite green in the presence of inorganic phosphate (Pi) and this property can be exploited to measure any enzyme that generates Pi. Recombinant Human 5′-Nucleotidase (CD73) (R&D #5795-EN, CHO derived CD73 (Trp27-Lys547), with a C-terminal 6-His tag) was used in the enzymatic assay. This assay was run in a 384-well plate format (Corning® NBS™ 384 well plates, Cat #3640). The basic assay procedure involves two steps: 1) Enzyme reaction: The CD73 enzyme (R&D #5795-EN) is incubated in the presence or absence of compounds. AMP (sigma, cat #01930) is added to start the […] reaction. 2) Detection step: Gold mix is added to the assay system, then stabilizers are added. After incubation the absorbance of the solution is read at OD 635 nm. The recorded OD signal is proportional to the enzyme activity.
Briefly, 25 μl human CD73 (0.5 nM final concentration) in the enzymatic buffer solutions (20 mM Tris, 25 mM NaCl, 1 mM MgCl2, pH 7.5, 0.005% Tween-20) were mixed with various concentrations of the test compound (dissolved in 100% DMSO). These solutions were incubated for 15 min at 25° C., and subsequently 25 μl AMP (30 μM final concentration) was added to start the reaction. The final reaction mixture of enzyme-substrate-compound was incubated for 20 min at 37° C. Meanwhile ‘Gold mix’ was prepared shortly before use by adding 1/100 vol. of accelerator to the PiColorLock™ Gold reagent. 12 μL/well of the ‘Gold mix’ was added to assay plate containing 50 μL enzyme reaction buffer and incubated at 25° C. for 5 min. 5 μL/well stabilizer was added to the assay plate and incubated at 25° C. for 30 min. The absorbance of the well solutions was measured at 635 nm on a Spark 10M instrument (TECAN).
The percent (%) inhibition at each concentration of a compound was calculated relative to the OD value in the Max and Min control wells contained within each assay plate. The Max control wells contained enzyme and substrate as 0% inhibition, and the M control wells only contained substrate without enzyme as 100% inhibition. The concentrations and percent inhibition values for a test compound are plotted and the concentration of the compound required to achieve 50% inhibition (IC50) was determined with a four-parameter logistic dose response equation.

[2] = biological target: T2, Cell surface CD73 of U87 MG human glioblastoma cells (Homo sapiens, UniProt P21589); assay: CD73 Cellular Assay; assay type: cell-based; conditions: 5000 cells per well, 30 μM AMP substrate, read-out: Potency (IC50, CD73 cellular assay)
T2 construct: Cell surface CD73 catalyzes the conversion of adenosine monophosphate (AMP) to adenosine and inorganic phosphate; endogenous in cells; host or cells: U87 MG human glioblastoma cells
T2 sequence (P21589 27-549): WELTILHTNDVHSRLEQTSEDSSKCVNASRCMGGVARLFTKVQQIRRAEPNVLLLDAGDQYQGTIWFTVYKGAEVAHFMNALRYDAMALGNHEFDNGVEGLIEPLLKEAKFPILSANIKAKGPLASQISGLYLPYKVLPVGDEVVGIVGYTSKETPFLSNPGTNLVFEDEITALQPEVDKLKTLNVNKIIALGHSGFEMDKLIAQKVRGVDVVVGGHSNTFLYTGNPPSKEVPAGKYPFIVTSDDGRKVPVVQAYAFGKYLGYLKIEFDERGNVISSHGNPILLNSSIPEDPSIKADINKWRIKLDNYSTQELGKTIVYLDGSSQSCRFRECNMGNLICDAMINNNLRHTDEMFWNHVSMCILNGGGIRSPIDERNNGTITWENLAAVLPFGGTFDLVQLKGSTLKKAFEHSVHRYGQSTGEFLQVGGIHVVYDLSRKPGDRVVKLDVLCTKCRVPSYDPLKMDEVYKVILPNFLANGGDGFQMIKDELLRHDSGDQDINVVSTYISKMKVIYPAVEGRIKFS
Protocol: Cell surface CD73 catalyzes the conversion of adenosine monophosphate (AMP) to adenosine and inorganic phosphate. U87 MG human glioblastoma cells express high level of CD73. Cells are treated with compounds in a 96-well assay plate and supernatants are collected into a 384-well detection plate. The concentration of inorganic phosphate (Pi) in the supernatants is determined using the phosphate detection reagent, PiColorLock™ (Innova Bioscience, Cat #303-0125) following the manufacturer's instructions.
Briefly, on the day of the assay, U87 MG cells were harvested and resuspended in assay buffer which consisted of 20 mM HEPES, pH=7.4, 137 mM NaCl, 5.4 mM KCl, 1.3 mM CaCl2, 4.2 mM NaHCO3 and 0.1% glucose. To test the effect of compounds on cellular CD73 enzymatic activity, 500 nL/well of compounds dissolved in DMSO were added to a 96-well TC-treated microplate (Corning #3599). Next, 80 μL/well of U87 MG cells in assay buffer were added to assay plate. After 30 minutes of incubation in an atmosphere of 5% CO2 at 37° C., 20 μL/well of 150 μM AMP (Adenosine 5′-monophosphate monohydrate, Sigma, Cat #01930) in assay buffer was added to assay plate. Final assay conditions consisted of 5000 cells per well in 0.5% DMSO and 30 μM AMP substrate. After 50 minutes of incubation in an atmosphere of 5% CO2 at 37° C., 50 μL/well of supernatant was transferred to the 384-well detection plate (Corning® NBS™ 384 well plates, Cat #3640). Meanwhile “Gold mix” was prepared shortly before use by adding 1/100 volume of accelerator to the PiColorLock™ Gold reagent. 12 μL/well of the “Gold mix” was added to detection plate containing 50 μL/well of supernatant and incubated at 25° C. for 5 minutes. 5 μL/well stabilizer was added to the detection plate and incubated at 25° C. for 30 minutes. The absorbance at 635 nm was measured on a Spark 10M instrument (TECAN). The percent (%) inhibition at each concentration of a compound was calculated relative to the OD value in the Max and Min control wells contained within each assay plate. The Max control wells contained cells and substrate as 0% inhibition, and the Min control wells only contained cells as 100% inhibition. The concentrations and percent inhibition values for a test compound are plotted and the concentration of a the compound required to achieve 50% inhibition (IC50) was determined with a four-parameter logistic dose response equation.

Row | pIC50 [1] | pIC50 [2] | SMILES
1 | > 8.00 | > 9.00 | O=P(O)(O)CP(=O)(O)OC[C@H]1O[C@@H](c2cnc3c(NC4CCCC4)nc(Cl)nn23)[C@H](O)[C@@H]1O [Compound 5, (((((2R,3S,4R,1S)-5-(2-chloro-4-(cyclopentylamino)imidazo[2,1-f][1,2,4]triazin-7-yl)-3,4-dihydroxytetrahydrofuran-2-yl)methoxy)(hydroxy)phosphoryl)methyl)phosphonic acid]
2 | > 8.00 | > 9.00 | O=P(O)(O)CP(=O)(O)OC[C@H]1O[C@@H](c2cnc3c(NCc4ccccc4)nc(Cl)nn23)[C@H](O)[C@@H]1O [Compound 6, (((((2R,3S,4R,1S)-5-(4-(benzylamino)-2-chloroimidazo[2,1-f][1,2,4]triazin-7-yl)-3,4-dihydroxytetrahydrofuran-2-yl)methoxy)(hydroxy)phosphoryl)methyl)phosphonic Acid]
3 | > 8.00 | > 9.00 | CN(c1nc(Cl)nn2c([C@@H]3O[C@H](COP(=O)(O)CP(=O)(O)O)[C@@H](O)[C@H]3O)cnc12)C1CCCC1 [Compound 8, (((((2R,3S,4R,1S)-5-(2-chloro-4-(cyclopentyl(methyl)amino)imidazo[2,1-f][1,2,4]triazin-7-yl)-3,4-dihydroxytetrahydrofuran-2-yl)methoxy)(hydroxy)phosphoryl)methyl)phosphonic acid]
4 | > 8.00 | > 9.00 | O=P(O)(O)CP(=O)(O)OC[C@H]1O[C@@H](c2cnc3c(NC4CCc5ccccc54)nc(Cl)nn23)[C@H](O)[C@@H]1O (stereo partly drawn) [Compound 9, (((((2R,3S,4R,1S)-5-(2-chloro-4-((2,3-dihydro-1H-inden-1-yl)amino)imidazo[2,1-f][1,2,4]triazin-7-yl)-3,4-dihydroxytetrahydrofuran-2-yl)methoxy)(hydroxy)phosphoryl)methy)phosphonic acid]
5 | > 8.00 | > 9.00 | O=P(O)(O)CP(=O)(O)OC[C@H]1O[C@@H](c2cnc3c(N4CC5CCCC5C4)nc(Cl)nn23)[C@H](O)[C@@H]1O (stereo partly drawn) [Compound 10, (((((2R,3S,4R,1S)-5-(2-chloro-4-(hexahydrocyclopenta[c]pyrrol-2(1H)-yl)imidazo[2,1-f][1,2,4]triazin-7-yl)-3,4-dihydroxytetrahydrofuran-2-yl)methoxy)(hydroxy)phosphoryl)methy)phosphonic acid]
6 | > 8.00 | > 9.00 | O=P(O)(O)CP(=O)(O)OC[C@H]1O[C@@H](c2cnc3c(NCc4ccccc4Cl)nc(Cl)nn23)[C@H](O)[C@@H]1O [Compound 11, [({[(2R,3S,4R,5S)-5-(2-chloro-4-{[(2-chlorophenyl)methyl]amino}imidazo[2,1-f][1,2,4]triazin-7-yl)-3,4-dihydroxyoxolan-2-yl]methoxy}(hydroxy)phosphoryl)methyl]phosphonic acid]
7 | > 8.00 | > 9.00 | O=P(O)(O)CP(=O)(O)OC[C@H]1O[C@@H](c2cnc3c(NCC4CCOC4)nc(Cl)nn23)[C@H](O)[C@@H]1O (stereo partly drawn) [Compound 12, (((((2R,3S,4R,1S)-5-(2-chloro-4-(((tetrahydrofuran-3-yl)methyl)amino)imidazo[2,1-f][1,2,4]triazin-7-yl)-3,4-dihydroxytetrahydrofuran-2-yl)methoxy)(hydroxy)phosphoryl)methyl) phosphonic Acid]
8 | > 8.00 | > 9.00 | O=P(O)(O)CP(=O)(O)OC[C@H]1O[C@@H](c2cnc3c(NC4CCOC4)nc(Cl)nn23)[C@H](O)[C@@H]1O (stereo partly drawn) [Compound 14, [({[(2R,3S,4R,5S)-5-[2-chloro-4-(oxolan-3-ylamino)imidazo[2,1-f][1,2,4]triazin-7-yl]-3,4-dihydroxyoxolan-2-yl]methoxy}(hydroxy)phosphoryl)methyl]phosphonic acid]
9 | > 8.00 | > 9.00 | O=P(O)(O)CP(=O)(O)OC[C@H]1O[C@@H](c2coc3c(NCc4ccccc4)nc(Cl)nc23)[C@H](O)[C@@H]1O [Compound 15, [({[(2R,3S,4R,5S)-5-[4-(benzylamino)-2-chlorofuro[3,2-d]pyrimidin-7-yl]-3,4-dihydroxyoxolan-2-yl]methoxy}(hydroxy)phosphoryl)methyl]phosphonic Acid]
10 | 7.00 to 8.00 | 8.00 to 9.00 | O=P(O)(O)CP(=O)(O)OC[C@H]1O[C@@H](c2ccc3c(NCc4ccccc4)ncnn23)[C@H](O)[C@@H]1O [Compound 16, (((((2R,3S,4R,1S)-5-(4-(benzylamino)pyrrolo[2,1-f][1,2,4]triazin-7-yl)-3,4-dihydroxytetrahydrofuran-2-yl)methoxy)(hydroxy)phosphoryl)methyl)phosphonic acid]
